From US7989438B2, “Therapeutic compounds” (Istituto di Ricerche di Biologia Molecolare P. Angeletti SpA, priority 2007, dated 2011)
Like-named read-outs stand apart in the source and are kept apart here.

System: HCV subgenomic replication
Test: Cell based HCV replication assay (subgenomic replicon in Huh-7 cells, NS3 Cell-ELISA)
Settings: activity ranges, read-out: IC50* (nM), Inhibition of HCV subgenomic replication
In short: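 Huh-7 cells stably carrying the I377neo/NS3-3′/wt subgenomic replicon, seeded at 10^4 cells/well in DMEM/10% FCS and exposed to inhibitor for 96 h. NS3 expression was measured by Cell-ELISA (mAb 10E5/24, alkaline phosphatase, absorbance 405/620 nm), in duplicate. IC50 was fitted to the Hill equation, with background from parental Huh-7 cells.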

[1] = Table 1, 16 membered macrocycles

Row | SMILES | IC50 [1] | IC50 (Table 2, various macrocycles)
1 | CN1CCCN(C)S(=O)(=O)NC(=O)c2ccc3c(C4CCCCC4)c4n(c3c2)CC(CC1)COc1ccccc1-4 (stereo not shown) [Example 101, 14-cyclohexyl-18,22-dimethyl-7,8-dihydro-6H-7,11-(ethanoiminopropanoiminothioiminomethano)indolo[1,2-e][1,5]benzoxazocin-15-one 17,17-dioxide] | 25 to 150 nM | –
2 | CN1CCN(CCOCc2ccccc2)CCN(C)S(=O)(=O)NC(=O)c2ccc3c(C4CCCCC4)c4n(c3c2)CC1COc1ccccc1-4 [Example 102, (7R)-21-[2-(benzyloxy)ethyl]-14-cyclohexyl-18,24-dimethyl-7,8-dihydro-6H-7,11-(epiminoethanoiminoethanoiminothioiminomethano)-indolo[1,2-e][1,5]benzoxazocin-15-one 17,17-dioxide] | < 25 nM | –
3 | CN1CCN(CCO)CCN(C)S(=O)(=O)NC(=O)c2ccc3c(C4CCCCC4)c4n(c3c2)CC1COc1ccccc1-4 [Example 103, (7R)-14-cyclohexyl-21-(2-hydroxyethyl)-18,24-dimethyl-7,8-dihydro-6H-7,11-(epiminoethanoiminoethanoiminothioiminomethano)-indolo[1,2-e][1,5]benzoxazocin-15-one 17,17-dioxide] | < 25 nM | –
4 | CC(C)CN1CCN(C)C2COc3ccccc3-c3c(C4CCCCC4)c4ccc(cc4n3C2)C(=O)NS(=O)(=O)N(C)CC1 [Example 104, (7R)-14-cyclohexyl-21-isobutyl-18,24-dimethyl-7,8-dihydro-6H-7,11-(epiminoethanoiminoethanoiminothioiminomethano)-indolo[1,2-e][1,5]benzoxazocin-15-one 17,17-dioxide] | < 25 nM | –
5 | CN(C)CC(=O)N1CCN(C)[C@H]2COc3ccccc3-c3c(C4CCCCC4)c4ccc(cc4n3C2)C(=O)NS(=O)(=O)N(C)CC1 [Example 105, (7R)-14-cyclohexyl-21-(N,N-dimethylglycyl)-18,24-dimethyl-7,8-dihydro-6H-7,11-(epiminoethanoiminoethanoiminothioiminomethano)-indolo[1,2-e][1,5]benzoxazocin-15-one 17,17-dioxide] | < 25 nM | –
6 | CCN1CCN(C)C2COc3ccccc3-c3c(C4CCCCC4)c4ccc(cc4n3C2)C(=O)NS(=O)(=O)N(CCO)CC1 [Example 106, (7R)-14-cyclohexyl-21-ethyl-18-(2-hydroxyethyl)-24-methyl-7,8-dihydro-6H-7,11-(epiminoethanoiminoethanoiminothioiminomethano)-indolo[1,2-e][1,5]benzoxazocin-15-one 17,17-dioxide] | < 25 nM | –
7 | CCN1CCN(CC)C2COc3ccccc3-c3c(C4CCCCC4)c4ccc(cc4n3C2)C(=O)NS(=O)(=O)N(C)CC1 [Example 107, (7R)-14-cyclohexyl-21,24-diethyl-18-methyl-7,8-dihydro-6H-7,11-(epiminoethanoiminoethanoiminothioiminomethano)-indolo[1,2-e][1,5]benzoxazocin-15-one 17,17-dioxide] | < 25 nM | –
8 | CN1CCN(Cc2ccccc2)CCN(C)S(=O)(=O)NC(=O)c2ccc3c(C4CCCCC4)c4n(c3c2)CC1Cc1ccccc1-4 (stereo not shown) [Example 201, 20-benzyl-13-cyclohexyl-17,23-dimethyl-6,7-dihydro-5H-6,10-(epiminoethanoiminoethanoiminothioiminomethano)-indolo[2,1-a][2]benzazepin-14-one 16,16-dioxide] | – | > 500 nM
9 | CN1CCN(C)C2COc3ccc(F)cc3-c3c(C4CCCCC4)c4ccc(cc4n3C2)C(=O)NS(=O)(=O)N(C)CC1 [Example 202, (7R)-14-cyclohexyl-2-fluoro-18,21,24-trimethyl-7,8-dihydro-6H-7,11-(epiminoethanoiminoethanoiminothioiminomethano)-indolo[1,2-e][1,5]benzoxazocin-15-one 17,17-dioxide] | – | < 25 nM
10 | CCN1CCN(C)C2COc3cc(F)ccc3-c3c(C4CCCCC4)c4ccc(cc4n3C2)C(=O)NS(=O)(=O)N(C)CC1 [Example 203, (7R)-14-cyclohexyl-21-ethyl-3-fluoro-18,24-dimethyl-7,8-dihydro-6H-7,11-(epiminoethanoiminoethanoiminothioiminomethano)-indolo[1,2-e][1,5]benzoxazocin-15-one 17,17-dioxide] | – | < 25 nM
